Legend:
Assay in all cases: relative viability (nuclei count vs DMSO), 5 days (fraction); higher = more cells survive
[1] = compound: CCC1=CN=CN=C1N2CCN(CC2)CC3=NC4=C(N3)C=C(C=C4)C(F)(F)F + O=C(CCCCCCC(=O)Nc1ccccc1)NO [Vorinostat] (partner 1 µM)
Outline: (§1)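 One day after seeding in 1536-well plates, lung cancer cell lines were dosed by pin tool. Dosing was either single-drug or a fixed anchor-drug dose plus five library-drug doses (not always all listed) in √10 steps. After 5 days, nuclei were stained in one fix-and-stain step and counted on 4× images, and relative viability is the nuclei count of treated wells over that of vehicle wells, given as the median of duplicate plates.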

Mirin + Navitoclax = compound: N=C1NC(=O)/C(=C/c2ccc(O)cc2)S1 [Mirin] + CC1(C)CCC(c2ccc(Cl)cc2)=C(CN2CCN(c3ccc(C(=O)NS(=O)(=O)c4ccc(N[C@H](CCN5CCOCC5)CSc5ccccc5)c(S(=O)(=O)C(F)(F)F)c4)cc3)CC2)C1 [Navitoclax] (partner 0.5 µM)
Outline: as §1

Mirin + Olaparib = compound: N=C1NC(=O)/C(=C/c2ccc(O)cc2)S1 [Mirin] + O=C(c1cc(Cc2n[nH]c(=O)c3ccccc23)ccc1F)N1CCN(C(=O)C2CC2)CC1 [Olaparib] (partner 8 µM)
Outline: as §1

[2] = compound: CCC1=CN=CN=C1N2CCN(CC2)CC3=NC4=C(N3)C=C(C=C4)C(F)(F)F + C[C@@H](Oc1cc(-c2cnn(C3CCNCC3)c2)cnc1N)c1c(Cl)ccc(F)c1Cl [Crizotinib] (partner 1 µM)
Outline: as §1

| Cell Line | relative viability ([1]; first compound 0.04 µM) | relative viability ([1]; first compound 0.1265 µM) | relative viability ([1]; first compound 0.4 µM) | relative viability ([1]; first compound 1.265 µM) | relative viability ([1]; first compound 4 µM) | relative viability (Mirin + Navitoclax; first compound 0.25 µM) | relative viability (Mirin + Navitoclax; first compound 0.7906 µM) | relative viability (Mirin + Navitoclax; first compound 2.5 µM) | relative viability (Mirin + Navitoclax; first compound 7.906 µM) | relative viability (Mirin + Navitoclax; first compound 25 µM) | relative viability (Mirin + Olaparib; first compound 0.25 µM) | relative viability (Mirin + Olaparib; first compound 0.7906 µM) | relative viability (Mirin + Olaparib; first compound 2.5 µM) | relative viability (Mirin + Olaparib; first compound 7.906 µM) | relative viability (Mirin + Olaparib; first compound 25 µM) | relative viability ([2]; first compound 0.04 µM) | relative viability ([2]; first compound 0.1265 µM) | relative viability ([2]; first compound 0.4 µM) | relative viability ([2]; first compound 1.265 µM) | relative viability ([2]; first compound 4 µM) |
| --- | --- | --- | --- | --- | --- | --- | --- | --- | --- | --- | --- | --- | --- | --- | --- | --- | --- | --- | --- | --- |
| 201T | 0.923 | 0.889 | 0.819 | 0.817 | 1.06 | 1.18 | 1.27 | 1.18 | 1.32 | 1.33 | 0.877 | 0.888 | 0.886 | 0.902 | 1.03 | 0.985 | 0.993 | 1.03 | 1.02 | 1.12 |
| NCI-H2009 | 0.775 | 0.698 | 0.753 | 0.61 | 0.639 | 1.17 | 1.3 | 1.18 | 1.11 | 1.2 | 0.727 | 0.737 | 0.684 | 0.524 | 0.675 | 1.06 | 1.05 | 1.07 | 1.05 | 1.03 |
| NCI-H23 | 0.567 | 0.65 | 0.453 | 0.606 | 0.808 | 0.941 |  | 0.783 | 0.682 | 0.71 | 0.317 |  | 0.342 | 0.248 | 0.377 | 0.591 | 0.559 | 0.574 | 0.689 | 0.989 |
| LU99A | 0.608 | 0.486 | 0.528 | 0.466 | 0.652 | 0.706 | 0.677 | 0.92 | 0.742 | 0.542 | 0.297 | 0.206 | 0.288 | 0.228 | 0.165 | 0.543 | 0.53 | 0.541 | 1 | 1.09 |
| NCI-H1437 | 0.915 | 0.748 | 0.745 | 0.64 | 0.5 | 1.09 | 1.09 | 1.12 | 1.07 | 1.05 | 0.637 | 0.641 | 0.607 | 0.625 | 0.549 | 0.969 | 0.799 | 0.964 | 0.903 | 0.752 |
| EKVX | 0.767 | 0.678 | 0.739 | 0.575 | 0.659 | 1.01 | 0.932 | 1.11 | 0.875 | 0.968 | 0.857 | 0.916 | 0.839 | 0.758 | 0.993 | 1.22 | 0.728 | 0.915 | 0.873 | 1.07 |
| IA-LM |  | 0.979 | 0.937 | 0.932 | 0.962 | 0.835 | 0.899 | 0.705 | 0.498 | 0.752 | 0.786 | 0.947 | 0.765 |  | 0.902 | 0.907 | 0.763 | 0.94 | 0.669 | 0.759 |
| NCI-H596 | 0.534 | 0.56 | 0.618 | 0.562 | 0.623 | 0.966 | 0.855 | 0.96 | 1.15 | 0.962 | 0.661 | 0.775 | 0.67 | 0.745 | 0.881 | 0.91 | 1.06 | 0.971 | 1 | 1.14 |
| LCLC-97TM1 | 0.607 | 0.685 | 0.642 | 0.711 | 0.751 | 0.314 | 0.515 | 0.511 | 0.194 | 0.288 | 0.386 | 0.413 | 0.486 | 0.244 | 0.166 | 0.389 | 0.354 | 0.387 | 0.413 | 0.502 |
| NCI-H2170 | 0.787 | 0.731 | 0.778 | 0.724 | 0.815 | 0.698 | 0.51 | 0.659 | 0.521 | 0.375 | 0.582 | 0.548 | 0.576 | 0.597 | 0.601 | 1.12 | 1.18 | 1.2 | 1.27 | 1.49 |
| NCI-H322M | 1.12 | 0.855 | 0.859 | 0.621 | 0.912 | 1.26 | 1.28 | 1.25 | 1.22 | 1.31 | 0.81 | 0.816 | 0.726 | 0.712 | 0.583 | 0.956 | 0.868 | 0.918 | 0.896 | 1.37 |
| PC-3 [JPC-3] |  | 0.737 | 0.738 | 0.701 | 0.885 | 0.826 | 0.813 | 0.812 | 0.869 | 0.904 | 1.14 | 1.23 | 1.19 | 1.21 | 1.23 | 0.989 | 0.919 | 0.948 | 0.92 | 0.934 |
| EPLC-272H | 0.311 | 0.598 | 0.373 | 0.392 | 0.351 | 1.08 |  | 1.09 | 0.965 | 0.808 | 0.867 | 0.682 | 0.812 | 0.661 | 0.228 | 0.81 | 0.867 | 0.89 | 0.959 | 1.19 |
| A-427 | 0.776 | 0.836 | 0.794 | 0.721 | 0.809 | 0.942 |  | 0.955 | 0.941 | 1.11 | 0.769 | 0.682 | 0.631 | 0.766 | 0.766 | 0.918 | 0.825 | 1.04 | 0.714 | 0.865 |

Reference: the supplement of paper PMC10307832
